Results as given in PMC8540642, “Antineoplastic Activity of Rhus trilobata Nutt. (Anacardiaceae) against Ovarian Cancer and Identification of Active Metabolites in This Pathology” (Plants, 2021).
Converted amounts (≈) assume the structure as drawn. Read-outs that look alike come from different tables or passages of the source.

How the values were obtained:
[1] = Morphometric analysis of liver and kidneys in treated Nu/Nu mice; format: in vivo
Method: (§1) Computed axial tomography (CAT) was performed with a Somatom Emotion™ (Siemens™) with animals in supine decubitus, full-body, and craniocaudal directions. The sequences and parameters used in the study were modifications based on the ExtrHR protocol. Ultrasonography (USG) was performed in an ultrasound system (LogiQ™ P7, General Electric-Healthcare®, Chicago, IL, USA), with real-time image, skeletal muscle preset, and Doppler application. Determination of paraclinical and histopathological studies such as hematic biometry, blood chemistry, and pathological lesions in liver, kidneys, and tumor were performed according to the protocol described by Varela-Rodríguez et al..

[2] = test system: SKOV-3 cells xenotransplant; assay: Antineoplastic activity in Nu/Nu mice with subcutaneous SKOV-3 xenotransplant; format: in vivo; parameters: key to Vascularity of tumor lesion / Fibrosis of tumor lesion: +, present; +++, abundant
Method: Nu/Nu mice were used to determine the antineoplastic activity of RHTR (20 female, 25 ± 5 g weight, and 6-8 weeks old). Mice were maintained in sterile conditions (25 ± 1 °C, and 12 h light/dark cycles) and ad libitum access to food (LabDiet®, Richmond, IN, USA) or water in UPEAL (CINVESTAV-IPN). The Institutional Ethics Committee approved all procedures (No. 184-16), following the Official Mexican Regulations: NOM-062-ZOO-1999 [31] and the International Guidelines (see Appendix A, NC3Rs ARRIVE Guidelines Checklist). Mice were xenotransplanted subcutaneously on the right flank with 5 × 10^6 SKOV-3 cells. The development of tumor lesions was monitored for 28 days (≈50 mm^3). Four weeks post-xenotransplantation, rodents were treated daily with 200 mg/kg/i.p. of AE, AF02, or controls for another 28 days. Finally, each week, we evaluated (i) bodyweight with an electronic bascule (CS200, Ohaus®, Parsippany, NJ, USA) and (ii) tumoral lesions with a Vernier caliper (Truper®, Jilotepec, Edo. de México, M.X.). At the end of treatments, mice were anesthetized with 0.1575 mg/250 μL 1× PBS (v/v, i.p.) of pentobarbital sodium (PiSA®, Guadalajara, Jal., M.X.) for the subsequent analyses (Figure 5).
as §1

[3] = Paraclinical studies (blood chemistry, hematic biometry) and bodyweight in treated Nu/Nu mice; format: in vivo; conditions: 28 days treatment
Method: Nu/Nu mice were used to determine the antineoplastic activity of RHTR (20 female, 25 ± 5 g weight, and 6-8 weeks old). […] Mice were xenotransplanted subcutaneously on the right flank with 5 × 10^6 SKOV-3 cells. […] Four weeks post-xenotransplantation, rodents were treated daily with 200 mg/kg/i.p. of AE, AF02, or controls for another 28 days. Finally, each week, we evaluated (i) bodyweight with an electronic bascule (CS200, Ohaus®, Parsippany, NJ, USA) and (ii) tumoral lesions with a Vernier caliper (Truper®, Jilotepec, Edo. de México, M.X.).
as §1

SKOV-3 cells = assay: MTT cell viability, dose-response curves 24 h; format: cell-based, human; conditions: Homo sapiens, SK-OV-3, MTT, 24 h, read-out: IC50 (half-maximal inhibitory concentration), SKOV-3
Method: (§2) Cultures (2 × 10^4 cells/well) were seeded with 200 μL of supplemented medium (Sigma®) in 96-well plates (Corning®, Corning, NY, USA) and incubated for 24 h. Cell treatments were 5-200 μg/mL of samples/controls for 24 h. At the end of the treatments, we added MTT (5 mg/mL, Sigma®) for 4 h of incubation, and optical density was measured at λ = 590 nm in a VariosKan® Flash (Thermo-Scientific®, Waltham, MA, USA). The half-maximal inhibitory concentration (IC50) was determined.

CHO-K1 cells = assay: MTT cell viability, dose-response curves 24 h; format: cell-based; conditions: MTT, 24 h; for IC50: Cricetulus griseus, CHO-K1, 24 h, read-out: IC50 (half-maximal inhibitory concentration), CHO-K1
Method: as §2

OVCAR-3 cells = assay: MTT cell viability, dose-response curves 24 h; format: cell-based; conditions: Homo sapiens, OVCAR-3, MTT, 24 h, read-out: IC50 (half-maximal inhibitory concentration), OVCAR-3
Method: as §2

BEAS-2B cells = assay: MTT cell viability, dose-response curves 24 h; format: cell-based; conditions: MTT; for IC50: Homo sapiens, BEAS-2B, read-out: IC50 (half-maximal inhibitory concentration), BEAS-2B
Method: as §2

CACO-2 cells = assay: MTT cell viability, dose-response curves 24 h; format: cell-based; conditions: Homo sapiens, Caco-2, MTT, 24 h, read-out: IC50 (half-maximal inhibitory concentration), CACO-2
Method: as §2

[4] = test system: ovarian cancer tumoral lesions; parameters: method as in PMID 32276584; conditions: 50 mg/kg, peritumoral route; cited from earlier work
MCF-7 = test system: MCF-7; parameters: method as in PMID 12781329, PMID 18790750; conditions: MCF-7, 50 μM, G1 phase; cited from earlier work

## N.N.O=C([O-])C1(C(=O)[O-])CCC1.[Pt+2] [Carboplatin, carboplatin]
[1]; 1X PBS 0.38 ± 0.042
  Kidneys weight: 0.40 ± 0.01 g
[1]; 1X PBS 1.53 ± 0.14
  Liver weight: 1.80 ± 0.10 g
[1]; 1X PBS 9.34 ± 0.67
  Kidneys larger diameter: 11.5 ± 0.7 mm
[1]; 1X PBS 29.65 ± 2.22
  Liver larger diameter: 30.5 ± 2.2 mm
[2]; 1× PBS +
  Fibrosis of tumor lesion: +
[2]; 1× PBS +++
  Vascularity of tumor lesion: +
[2]; 1× PBS Cystic
  Morphology of tumor lesion: Solid
[2]; Figure 3A, vehicle 35.16%
  necrosis percentage of tumor lesion (imaging): 5.19%
[2]; end of 28 days treatment, 1× PBS 0.34 ± 0.09
  Tumor lesion weight: 0.14 ± 0.06 g
[2]; end of 28 days treatment, 1× PBS 14.53 ± 2.4
  Tumor lesion larger diameter: 3.70 ± 0.26 mm
[2]; end of 28 days treatment, 1× PBS 373.3 ± 18.1
  Tumor volume: 137.3 ± 18.6 * mm^3
[3]; 1× PBS 0.55 ± 0.30
  PCT (plateletcrit): 0.55 ± 0.29
[3]; 1× PBS 0.65 ± 0.2
  Creatinine: 0.37 ± 0.26 mg/dL
[3]; 1× PBS 0.67 ± 0.16
  Total bilirubin: 0.58 ± 0.2 mg/dL
[3]; 1× PBS 1.36 ± 0.21
  Albumin: 1.33 ± 0.29 g/dL
[3]; 1× PBS 4.7 ± 0.56
  Protein: 5.1 ± 1.46 g/dL
[3]; 1× PBS 7.92 ± 1.93
  Erythrocytes: 7.81 ± 0.88 ×10^6/mm^3
[3]; 1× PBS 14.4 ± 2.13
  Hemoglobin: 13.1 ± 1.61 g/dL
[3]; 1× PBS 40.75 ± 14.5
  ALT (GPT): 64.4 ± 6.87 U/L
[3]; 1× PBS 44.52 ± 2.17
  Hematocrit: 40.57 ± 4.16%
[3]; 1× PBS 47.9 ± 7.16
  Urea: 59.4 ± 9.99 mg/dL
[3]; 1× PBS 71 ± 10.36
  Alkaline phosphatase: 66.6 ± 15.6 U/L
[3]; 1× PBS 78.3 ± 16.6
  Glucose: 107 ± 14.8 mg/dL
[3]; 1× PBS 85.5 ± 13.4
  Cholesterol: 108.6 ± 19.4 mg/dL
[3]; 1× PBS 87.6 ± 12.01
  Triglycerides: 103.7 ± 12.7 mg/dL
[3]; 1× PBS 149.8 ± 27.29
  AST (GOT): 162.9 ± 8.2 U/L

## COC(=O)c1cc(O)c(O)c(O)c1 [Compound 2, methyl 3,4,5-trihydroxybenzoate]
SKOV-3 cells
  IC50: > 200 µg/mL
SKOV-3 cells; value in brackets
  IC50: > 1090 µM
CHO-K1 cells
  IC50: 130 µg/mL
CHO-K1 cells; value in brackets
  IC50: 706 µM
OVCAR-3 cells
  IC50: > 200 µg/mL
OVCAR-3 cells; value in brackets
  IC50: > 1090 µM
BEAS-2B cells
  IC50: 200 µg/mL
BEAS-2B cells; value in brackets
  IC50: 1090 µM
CACO-2 cells
  IC50: 100 µg/mL
CACO-2 cells; value in brackets
  IC50: 543 µM

## O=c1c(O)c(-c2cc(O)c(O)c(O)c2)oc2cc(O)cc(O)c12 [Compound 5, myricetin]
SKOV-3 cells
  IC50: 166 µg/mL
SKOV-3 cells; value in brackets
  IC50: 522 µM
[4]
  inhibition of tumoral lesions (of progression): 50%
CHO-K1 cells; value in brackets
  IC50: 104 µM
CHO-K1 cells
  IC50 (half-maximal inhibitory concentration), CHO-K1: 33 µg/mL (≈ 104 µM)
CHO-K1 cells; listed as Myr
  IC50 (half-maximal inhibitory concentration), CHO-K1: ~ 150 μg/mL
OVCAR-3 cells
  IC50: 94 µg/mL
OVCAR-3 cells; value in brackets
  IC50: 295 µM
BEAS-2B cells; value in brackets
  IC50: 201 µM
BEAS-2B cells
  IC50 (half-maximal inhibitory concentration), BEAS-2B: 64 µg/mL (≈ 201 µM)
BEAS-2B cells; listed as Myr
  IC50 (half-maximal inhibitory concentration), BEAS-2B: ~ 150 μg/mL
CACO-2 cells
  IC50: 62 µg/mL
CACO-2 cells; value in brackets
  IC50: 195 µM

## O=C(OC[C@H]1O[C@@H](OC(=O)c2cc(O)c(O)c(O)c2)[C@H](OC(=O)c2cc(O)c(O)c(O)c2)[C@@H](OC(=O)c2cc(O)c(O)c(O)c2)[C@@H]1OC(=O)c1cc(O)c(O)c(O)c1)c1cc(O)c(O)c(O)c1 [Compound 8, 1,2,3,4,6-pentakis-O-galloyl-β-D-glucose]
MCF-7
  cell cycle effect: cell cycle arrest
